According to the supplement of paper PMC6045584:
± gives the standard deviation of the averaged measurements.

Key:
FORETINIB = compound: COc1cc2c(Oc3ccc(NC(=O)C4(C(=O)Nc5ccc(F)cc5)CC4)cc3F)ccnc2cc1OCCCN1CCOCC1 [FORETINIB]; experiment: surviving fraction relative to DMSO-only wells; higher = less growth inhibition; conditions: exposure time: 5 days
Outline: (§1)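 A line counted only if its three screens reached replicate Pearson r >0.7 and median Z' >0.3. Tumour cells in log phase were seeded at 250–500 per well in 384-well plates and, after 24 hours, kept in continuous contact with inhibitors at 0.5, 1, 5, 10, 50, 100, 500 and 1000 nM for five days. Surviving fraction was taken from CellTiter-Glo luminescence relative to the median of DMSO-only wells.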

DASATINIB = compound: Cc1nc(Nc2ncc(C(=O)Nc3c(C)cccc3Cl)s2)cc(N2CCN(CCO)CC2)n1 [DASATINIB]; experiment: as above; conditions: exposure time: 5 days
Outline: as §1

| Test System | surviving fraction (FORETINIB; 0.5 nM) | surviving fraction (FORETINIB; 1 nM) | surviving fraction (FORETINIB; 5 nM) | surviving fraction (FORETINIB; 10 nM) | surviving fraction (FORETINIB; 50 nM) | surviving fraction (FORETINIB; 100 nM) | surviving fraction (FORETINIB; 500 nM) | surviving fraction (FORETINIB; 1000 nM) | surviving fraction (DASATINIB; 0.5 nM) | surviving fraction (DASATINIB; 1 nM) | surviving fraction (DASATINIB; 5 nM) | surviving fraction (DASATINIB; 10 nM) | surviving fraction (DASATINIB; 50 nM) | surviving fraction (DASATINIB; 100 nM) | surviving fraction (DASATINIB; 500 nM) | surviving fraction (DASATINIB; 1000 nM) |
| --- | --- | --- | --- | --- | --- | --- | --- | --- | --- | --- | --- | --- | --- | --- | --- | --- |
| 22RV1 PROSTATE | 1.02 ± 0.065 | 1.04 ± 0.033 | 0.98 ± 0.15 | 0.984 ± 0.043 | 0.965 ± 0.12 | 0.99 ± 0.17 | 0.611 ± 0.061 | 0.511 ± 0.015 | 1.15 ± 0.32 | 0.983 ± 0.09 | 1.1 ± 0.3 | 0.935 ± 0.097 | 1.01 ± 0.15 | 0.929 ± 0.056 | 1.04 ± 0.085 | 1.09 ± 0.16 |
| 93VU HEADNECK | 1.21 ± 0.1 | 1.21 ± 0.048 | 1.2 ± 0.13 | 1.07 ± 0.039 | 1.04 ± 0.024 | 1.04 ± 0.025 | 0.849 ± 0.13 | 0.224 ± 0.076 | 0.779 ± 0.041 | 0.788 ± 0.054 | 0.829 ± 0.036 | 0.752 ± 0.053 | 0.276 ± 0.02 | 0.132 ± 0.016 | 0.0923 ± 0.0015 | 0.0923 ± 0.013 |
| 143B BONE | 1.05 ± 0.046 | 1.03 ± 0.033 | 1.04 ± 0.015 | 1.02 ± 0.05 | 1.01 ± 0.0099 | 1.038 ± 0.0035 | 0.86 ± 0.015 | 0.755 ± 0.03 | 1.04 ± 0.058 | 1.03 ± 0.025 | 1.01 ± 0.046 | 0.9835 ± 0.00071 | 0.8695 ± 0.005 | 0.806 ± 0.019 | 0.7575 ± 0.0035 | 0.75 ± 0.042 |
| A549 LUNG | 1.083 ± 0.0085 | 1.1 ± 0.018 | 1.08 ± 0.028 | 1.05 ± 0.016 | 1.06 ± 0.045 | 1.06 ± 0.041 | 0.703 ± 0.012 | 0.542 ± 0.021 | 0.915 ± 0.0066 | 0.9003 ± 0.0076 | 0.879 ± 0.02 | 0.859 ± 0.018 | 0.858 ± 0.033 | 0.8223 ± 0.0025 | 0.646 ± 0.028 | 0.631 ± 0.012 |
| ASKA SYNOVIAL | 1.11 ± 0.065 | 1.14 ± 0.037 | 1.06 ± 0.085 | 1.07 ± 0.075 | 1.13 ± 0.042 | 1.03 ± 0.044 | 0.371 ± 0.026 | 0.297 ± 0.0071 | 0.928 ± 0.024 | 0.904 ± 0.051 | 0.974 ± 0.061 | 0.936 ± 0.046 | 0.985 ± 0.085 | 0.94 ± 0.032 | 0.919 ± 0.019 | 0.905 ± 0.036 |
| BT20 BREAST | 1.11 ± 0.032 | 1.14 ± 0.13 | 1.12 ± 0.026 | 1.13 ± 0.045 | 1.22 ± 0.12 | 1.13 ± 0.037 | 0.382 ± 0.091 | 0.136 ± 0.017 | 0.767 ± 0.056 | 0.729 ± 0.02 | 0.699 ± 0.026 | 0.739 ± 0.11 | 0.774 ± 0.13 | 0.798 ± 0.061 | 0.752 ± 0.034 | 0.705 ± 0.036 |
| BT549 BREAST | 1.09 ± 0.059 | 1.08 ± 0.059 | 1.09 ± 0.15 | 1.12 ± 0.089 | 1.08 ± 0.12 | 1.15 ± 0.12 | 0.701 ± 0.022 | 0.222 ± 0.014 | 0.968 ± 0.16 | 0.937 ± 0.12 | 0.774 ± 0.12 | 0.669 ± 0.056 | 0.395 ± 0.037 | 0.236 ± 0.018 | 0.113 ± 0.012 | 0.114 ± 0.037 |
| C33A CERVIX | 1.02 ± 0.059 | 1.06 ± 0.086 | 1.1 ± 0.042 | 1.14 ± 0.098 | 1.03 ± 0.041 | 1.04 ± 0.047 | 0.596 ± 0.057 | 0.508 ± 0.029 | 0.869 ± 0.078 | 0.772 ± 0.044 | 0.521 ± 0.034 | 0.419 ± 0.008 | 0.219 ± 0.026 | 0.182 ± 0.0036 | 0.157 ± 0.0025 | 0.172 ± 0.0091 |
| CADOES1 SOFT TISSUE | 0.986 ± 0.23 | 0.887 ± 0.17 | 0.988 ± 0.25 | 0.876 ± 0.043 | 0.947 ± 0.02 | 0.795 ± 0.1 | 0.109 ± 0.011 | 0.088 ± 0.0062 | 1.04 ± 0.07 | 1.01 ± 0.034 | 0.91 ± 0.042 | 0.939 ± 0.11 | 1.01 ± 0.079 | 0.973 ± 0.081 | 1.05 ± 0.099 | 1.14 ± 0.1 |
| CAL51 BREAST | 0.991 ± 0.039 | 0.964 ± 0.053 | 1.04 ± 0.011 | 0.9858 ± 0.0063 | 0.993 ± 0.064 | 0.979 ± 0.052 | 0.162 ± 0.0044 | 0.136 ± 0.01 | 0.838 ± 0.069 | 0.8707 ± 0.0049 | 0.832 ± 0.047 | 0.737 ± 0.046 | 0.491 ± 0.036 | 0.386 ± 0.025 | 0.248 ± 0.019 | 0.238 ± 0.033 |
| CAL72 BONE | 1.1 ± 0.12 | 1.08 ± 0.12 | 1.13 ± 0.016 | 1.11 ± 0.12 | 1.17 ± 0.069 | 1.13 ± 0.041 | 0.655 ± 0.13 | 0.326 ± 0.088 | 1.01 ± 0.048 | 1.01 ± 0.041 | 0.862 ± 0.16 | 0.618 ± 0.25 | 0.269 ± 0.12 | 0.233 ± 0.12 | 0.226 ± 0.12 | 0.221 ± 0.12 |
| CAL120 BREAST | 0.95 ± 0.035 | 1.01 ± 0.033 | 0.997 ± 0.026 | 0.993 ± 0.042 | 0.997 ± 0.069 | 0.97 ± 0.014 | 0.683 ± 0.03 | 0.562 ± 0.016 | 0.877 ± 0.098 | 0.882 ± 0.025 | 0.861 ± 0.013 | 0.786 ± 0.062 | 0.497 ± 0.022 | 0.358 ± 0.021 | 0.217 ± 0.0088 | 0.192 ± 0.015 |
| CASKI CERVIX | 0.902 ± 0.072 | 0.929 ± 0.013 | 0.962 ± 0.019 | 0.943 ± 0.018 | 0.988 ± 0.062 | 0.976 ± 0.06 | 0.322 ± 0.026 | 0.188 ± 0.0057 | 0.732 ± 0.045 | 0.777 ± 0.052 | 0.69 ± 0.024 | 0.474 ± 0.03 | 0.121 ± 0.0042 | 0.0747 ± 0.0047 | 0.0433 ± 0.0023 | 0.0293 ± 0.00058 |
| CHLA90 AUTONOMIC GANGLIA | 0.983 ± 0.048 | 1.1 ± 0.24 | 0.977 ± 0.069 | 0.909 ± 0.045 | 0.962 ± 0.13 | 0.941 ± 0.12 | 0.62 ± 0.11 | 0.493 ± 0.12 | 0.801 ± 0.031 | 0.804 ± 0.059 | 0.737 ± 0.054 | 0.712 ± 0.025 | 0.735 ± 0.11 | 0.656 ± 0.091 | 0.711 ± 0.044 | 0.728 ± 0.026 |
| CME SYNOVIAL | 1.39 ± 0.037 | 1.39 ± 0.12 | 1.41 ± 0.074 | 1.28 ± 0.14 | 1.27 ± 0.08 | 1.18 ± 0.12 | 0.887 ± 0.1 | 0.285 ± 0.048 | 0.831 ± 0.15 | 0.827 ± 0.1 | 0.752 ± 0.088 | 0.713 ± 0.1 | 0.598 ± 0.028 | 0.464 ± 0.042 | 0.411 ± 0.075 | 0.383 ± 0.036 |
| COLO320DM LARGE INTESTINE | 1.09 ± 0.087 | 1.13 ± 0.066 | 1.07 ± 0.026 | 1.12 ± 0.076 | 1.05 ± 0.045 | 1.08 ± 0.11 | 0.517 ± 0.023 | 0.429 ± 0.05 | 1.12 ± 0.096 | 1.01 ± 0.051 | 1.08 ± 0.074 | 1.1 ± 0.034 | 1.03 ± 0.028 | 1.02 ± 0.056 | 1.09 ± 0.045 | 1.09 ± 0.089 |
| DU4475 BREAST | 0.942 ± 0.16 | 1.03 ± 0.019 | 0.931 ± 0.066 | 0.971 ± 0.19 | 0.979 ± 0.11 | 0.821 ± 0.13 | 0.715 ± 0.031 | 0.644 ± 0.043 | 0.824 ± 0.17 | 0.828 ± 0.09 | 0.802 ± 0.1 | 0.689 ± 0.21 | 0.658 ± 0.031 | 0.748 ± 0.15 | 0.669 ± 0.2 | 0.514 ± 0.083 |
| H23 LUNG | 1.04 ± 0.058 | 1.07 ± 0.073 | 1.06 ± 0.073 | 0.982 ± 0.035 | 0.976 ± 0.079 | 0.986 ± 0.08 | 0.889 ± 0.024 | 0.388 ± 0.015 | 0.924 ± 0.025 | 0.902 ± 0.065 | 0.823 ± 0.064 | 0.783 ± 0.052 | 0.597 ± 0.051 | 0.511 ± 0.067 | 0.288 ± 0.0063 | 0.256 ± 0.013 |
| HCC78 LUNG | 0.779 ± 0.1 | 0.92 ± 0.14 | 0.89 ± 0.12 | 0.752 ± 0.091 | 0.257 ± 0.06 | 0.259 ± 0.039 | 0.179 ± 0.025 | 0.0403 ± 0.0068 | 0.662 ± 0.064 | 0.783 ± 0.025 | 0.849 ± 0.084 | 0.914 ± 0.068 | 0.569 ± 0.15 | 0.235 ± 0.019 | 0.175 ± 0.056 | 0.176 ± 0.045 |
| HCC202 BREAST | 1.04 ± 0.11 | 1.33 ± 0.14 | 1.24 ± 0.37 | 1.02 ± 0.033 | 1.48 ± 0.2 | 1.34 ± 0.33 | 1.18 ± 0.15 | 0.995 ± 0.23 | 0.999 ± 0.37 | 1.23 ± 0.21 | 0.816 ± 0.2 | 0.907 ± 0.31 | 0.697 ± 0.21 | 0.722 ± 0.042 | 0.509 ± 0.019 | 0.505 ± 0.21 |
